Assay results taken from PubChem BioAssay AID330 (DTP/NCI, 2004).
Toxic doses and inconclusive results are not listed. How the source made its calls: active means survival T/C of 150% or more; inactive means T/C below 125% in these data.

Tested on: P388 leukemia ip, CD2F1 mice, survival T/C
Assay: NCI In Vivo Anticancer Drug Screen. Data for tumor model P388 Leukemia (intraperitoneal) in CD2F1 (CDF1) mice
Settings: endpoint: median survival time, higher = longer survival
Summary of the method: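 Mice carrying the transplanted tumor received test compound or vehicle. Survival was recorded in each group, and the value is the treated-group measurement divided by that of the vehicle-treated control group.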

[1] = dose: 50.0 mg/kg/injection, schedule: Q01DX009 (ip), vehicle: saline with Tween-80
[2] = dose: 100.0 mg/kg/injection, schedule: Q01DX009 (ip), vehicle: saline with Tween-80

Measured: T/C

O=P(O)(O)O
inactive: dose: 60.0 mg/kg/injection, schedule: Q01DX005 (ip), vehicle: saline 97 % of control | dose: 120.0 mg/kg/injection, schedule: Q01DX005 (ip), vehicle: saline 97 % of control | dose: 240.0 mg/kg/injection, schedule: Q01DX005 (ip), vehicle: saline 90 % of control

OC(Nc1ncccn1)C(Cl)(Cl)Cl (stereo not drawn)
inactive: [1] 104 % of control | [2] 100 % of control | dose: 200.0 mg/kg/injection, schedule: Q01DX009 (ip), vehicle: saline with Tween-80 100 % of control

CC(N)C(O)C(C)C(=O)O (stereo not drawn)
inactive: dose: 12.5 mg/kg/injection, schedule: Q01DX009 (ip), vehicle: water 111 % of control | dose: 25.0 mg/kg/injection, schedule: Q01DX009 (ip), vehicle: water 107 % of control | dose: 50.0 mg/kg/injection, schedule: Q01DX009 (ip), vehicle: water 107 % of control | dose: 100.0 mg/kg/injection, schedule: Q01DX009 (ip), vehicle: water 98 % of control | dose: 200.0 mg/kg/injection, schedule: Q01DX009 (ip), vehicle: water 102 % of control

Cc1cccc(C)c1N=Cc1ccc([N+](=O)[O-])cc1
inactive: dose: 50.0 mg/kg/injection, schedule: Q01DX009 (ip), vehicle: saline 100 % of control | dose: 100.0 mg/kg/injection, schedule: Q01DX009 (ip), vehicle: saline 99 % of control | dose: 200.0 mg/kg/injection, schedule: Q01DX009 (ip), vehicle: saline 102 % of control

NC(=O)C[CH2][Sn]([Cl])([Cl])[CH2]CC(N)=O
inactive: dose: 50.0 mg/kg/injection, schedule: Q01DX005 (ip), vehicle: saline 98 % of control | dose: 100.0 mg/kg/injection, schedule: Q01DX005 (ip), vehicle: saline 98 % of control | dose: 200.0 mg/kg/injection, schedule: Q01DX005 (ip), vehicle: saline 105 % of control

CCCCCCCCC(=O)Nc1ncc([N+](=O)[O-])s1
inactive: dose: 50.0 mg/kg/injection, schedule: Q01DX009 (ip), vehicle: Klucel (hydroxypropylcellulose) (HPC) 113 % of control | dose: 100.0 mg/kg/injection, schedule: Q01DX009 (ip), vehicle: Klucel (hydroxypropylcellulose) (HPC) 115 % of control | dose: 200.0 mg/kg/injection, schedule: Q01DX009 (ip), vehicle: Klucel (hydroxypropylcellulose) (HPC) 100 % of control

Cn1c(N)nc(N)c(NC=O)c1=O
inactive: dose: 50.0 mg/kg/injection, schedule: Q01DX005 (ip), vehicle: Klucel (hydroxypropylcellulose) (HPC) 101 % of control | dose: 100.0 mg/kg/injection, schedule: Q01DX005 (ip), vehicle: Klucel (hydroxypropylcellulose) (HPC) 103 % of control | dose: 200.0 mg/kg/injection, schedule: Q01DX005 (ip), vehicle: Klucel (hydroxypropylcellulose) (HPC) 101 % of control

CCC(=O)Nc1ccc(C(=O)C(C)O[N+](=O)[O-])cc1 (stereo not drawn)
inactive: dose: 25.0 mg/kg/injection, schedule: Q01DX009 (ip), vehicle: saline with Tween-80 98 % of control | [1] 99 % of control | [2] 100 % of control

CCC[As](CCC)SC1CC(OC(=O)c2ccccc2)C(OC(=O)c2ccccc2)C(COC(=O)c2ccccc2)O1 (stereo not drawn)
inactive: dose: 50.0 mg/kg/injection, schedule: Q01DX009 (ip), vehicle: saline + alcohol 100 % of control | dose: 100.0 mg/kg/injection, schedule: Q01DX009 (ip), vehicle: saline + alcohol 102 % of control | dose: 200.0 mg/kg/injection, schedule: Q01DX009 (ip), vehicle: saline + alcohol 102 % of control

O=S(=O)(O)SNCCN1CCOCC1
inactive: dose: 6.25 mg/kg/injection, schedule: Q01DX009 (ip), vehicle: saline 105 % of control | dose: 12.5 mg/kg/injection, schedule: Q01DX009 (ip), vehicle: saline 110 % of control | dose: 25.0 mg/kg/injection, schedule: Q01DX009 (ip), vehicle: saline 110 % of control

O=C1c2c(O)cc(O)cc2OC(c2ccc(O)cc2)C1O (stereo not drawn)
inactive: dose: 9.75 mg/kg/injection, schedule: Q01DX009 (ip), vehicle: saline 100 % of control | dose: 19.5 mg/kg/injection, schedule: Q01DX009 (ip), vehicle: saline 101 % of control | dose: 39.0 mg/kg/injection, schedule: Q01DX009 (ip), vehicle: saline 102 % of control

CN(C)C1=C(c2ccccc2)C(=O)C(c2ccccc2)=C1c1ccccc1
inactive: dose: 100.0 mg/kg/injection, schedule: Q04DX003 (ip), vehicle: Klucel (hydroxypropylcellulose) (HPC) 106 % of control | dose: 200.0 mg/kg/injection, schedule: Q04DX003 (ip), vehicle: Klucel (hydroxypropylcellulose) (HPC) 109 % of control | dose: 400.0 mg/kg/injection, schedule: Q04DX003 (ip), vehicle: Klucel (hydroxypropylcellulose) (HPC) 109 % of control
